# Patent publication US20160175316A1, “METHOD OF PREVENTING OR TREATING ORGAN, HEMATOPOIETIC STEM CELL OR BONE MARROW TRANSPLANT REJECTION” (AbbVie Inc., priority 2006, published 2016)
# Entries after “also recorded” stand apart in the source; their conditions may differ.
# Tests used:
# [1] = system: activated T cells; assay: Mouse mixed lymphocyte model, 3H-Thymidine incorporation; type: cell-based; conditions: Balb/c and C57BL/6 splenocytes co-cultured for 2 days, 6 hour pulse with 3H-Thy
# Description: Inhibition of ^3H-Thymidine incorporation by EXAMPLE A. 5×10^5 Balb/c and C57BL/6 splenocytes were co-cultured for 2 days with EXAMPLE A, its enantiomer or vehicle control before a 6 hour pulse with ^3H-Thy.
# [2] = system: activated murine B cells; assay: LPS-stimulated B cell proliferation, 3H-Thy pulse; type: cell-based, mouse; conditions: B6 B cells, in vitro stimulation with low doses of LPS, 6 hour pulse
# Description: Untouched B cells from B6 mouse splenocytes were isolated by MACS separation. 2×10^5B cells were cultured with EXAMPLE A, its enantiomer or vehicle control and […] of lipopolysaccharide (LPS) before a 6 hour pulse with ^3H-Thy. Control vs EXAMPLE A (P<0.05 1-way ANOVA using Dunnett's post-hoc). One representative experiment (n=2) is shown.
# [3] = system: naïve and memory T cells; assay: In vivo depletion of naïve and memory T cells in spleen and lymph nodes (flow cytometry); design: species or system C57BL/6 mice
# Description: To determine if T cell sensitivity to ABT-737 treatment was predicated on the maturation or differentiation state of a T cell, C57BL/6 mice were treated for 14 consecutive days with either ABT-737 (75 mg/kg) or vehicle control. Spleen and lymph nodes were recovered and the numbers of […]), central memory ([…] effector memory (CD62LloCD44hi) cells determined by flow cytometry.
# [4] = system: cytotoxic T lymphocytes (CTL); assay: In vivo CTL response after OVA priming; design: species or system C57BL/6 mice; conditions: 75 mg/kg daily for a week, OVA priming on day 6, assay seven days after priming
# Description: Having established the impact of ABT-737 on the steady state immune system, its effects on the development of specific immune responses were next examined. C57BL/6 mice were treated daily for a week with either ABT-737 (75 mg/kg) or vehicle control and on treatment day 6, mice were primed with ovalbumin (OVA) antigen in the form of irradiated OVA-coated H-2Kb+ splenocytes (OCS), a protocol known to induce cytotoxic T lymphocytes (CTL). Seven days after T-cell priming, in vivo CTL responses were assayed by measuring the persistence in spleen and lymph nodes of OVA peptide pulsed target cells, CFSE labeled and injected intravenously.
# [5] = system: NP-specific B cell subsets (germinal center, memory and plasma cells); assay: In vivo B cell response to NP-KLH immunization; design: species or system mice; conditions: for memory B cell compartment, established memory: treatment started at day 40 after immunization, 14 days, analyzed day 54; for frequency of ASC in the spleen or the bone marrow, established plasma cells: treatment starting day 40 after immunization
# Description: Mice were immunized with NP-KLH in alum by intraperitoneal injection and then treated with ABT-737 (75 mg/kg) or vehicle control for 14 consecutive days, starting 5 days after immunization. On day 19 after immunization, the numbers of NP-specific B cell subsets (germinal center (GC), memory and plasma cells) were quantified. As depicted in FIG. 5A, FIG. 5B, FIG. 5C, FIG. 5D, FIG. 5E, and FIG. 5F, antigen-specific B cells were detected by flow cytometry on the basis of surface staining for B220, NP and IgG1. […] To determine if memory cells were sensitive during formation or maintenance, mice were immunized and memory was allowed to form before ABT-737 treatment started at day 40 after immunization. The mice were analyzed after 14 days of treatment with ABT-737 or vehicle, i.e., day 54 after immunization. […] Antibody secreting cells (ASC) are also generated during the B cell response to antigen, secreting antibodies specific for the antigen. In the later stages of T cell dependent immune responses, ASC originate in the GC, then migrate to the bone marrow where they compete for access to survival niches in order to become long-lived plasma cells.
# [6] = system: islet allografts in spontaneously diabetic (RIP-Kb/CBA; H-2k) mice; assay: Allogenic islet graft rejection in diabetic mice; type: in vivo, mouse; conditions: 50 mg/kg intra-peritoneal daily, 14 days; for islet allograft survival versus vehicle treated recipients: graft on day 6
# Description: Non-immune diabetic mice were treated daily for 14 consecutive days with either ABT-737 (50 mg/kg) or vehicle control. On treatment day 6, mice received an allogenic grant of F1(B6×SJL) islets transplanted under the kidney capsule. Blood glucose was measured at various times post-transplantation. Grafts were deemed successful if normal blood glucose (<15 mmol/L) levels were achieved within 4 days post-transplantation.
# Viable islets were handpicked under dissecting microscope, pooled and cultured overnight at a density of 200-300 islets/3.5 cm Petri dish in 1.1 ml DME supplemented with 10% FCS at 37° C.; 10% CO2. The following day viable islets were handpicked into aliquots of 400 (of an equivalent size distribution) before grafting into recipient mice.
# Spontaneously diabetic (RIP-Kb/CBA; H-2^k) (Sutherland, R. M., Mountford, J. N., Allison, J., Harrison, L. C., & Lew, A. M., The non-immune RIP-Kb mouse is a useful host for islet transplantation, as the diabetes is spontaneous, mild and predictable. Int J Exp Diabetes Res, 2002, 3:37-45) male mice were treated daily for five consecutive days either with ABT-737 (50 mg/kg) or vehicle control via intra-peritoneal injection as described by Mason, K. D., Carpinelli, M. R., Fletcher, J. I., Collinge, J. E., Hilton, A. A., Ellis, S., Kelly, P. N., Ekert, P. G., Metcalf, D., Roberts, A. W., et al. Programmed anulear cell death delimits platelet life span. Cell (2007) 128:1173-1186. On day 6, mice received an allograft under the left kidney capsule consisting of 400 purified mouse pancreatic islets isolated from male and female donors [(C57Bl/6×SJL) F1; H-2^b,s]. Treatment was then continued daily for 8 days post transplantation. Graft function was monitored by diabetes reversal, determined by measuring blood glucose via tail vein bleed.
# [7] = system: human pancreatic islets; assay: Predicted toxicity to pancreatic islets from Bcl-2 family expression profile; conditions: predicted from expression profile of Bcl-2 family proteins such as Mcl-1
# [8] = 75 mg/kg for 14 days starting 5 days after immunization, day 19
# [9] = treatment starting on day 5 of the response
structure (smiles),measurement,setting,value
"CN(C)CC[C@H](CSc1ccccc1)Nc1ccc(S(=O)(=O)NC(=O)c2ccc(N3CCN(Cc4ccccc4-c4ccc(Cl)cc4)CC3)cc2)cc1[N+](=O)[O-] [EXAMPLE A, N-(4-(4-((4′-chloro(1,1′-biphenyl)-2-yl)methyl)piperazin-1-yl)benzoyl)-4-(((1R)-3-(dimethylamino)-1-((phenylsulfanyl)methyl)propyl)amino)-3-nitrobenzenesulfonamide]",proliferation of activated T cells (3H-Thymidine incorporation),[1],inhibits proliferation of activated T cells in a dose dependent manner
same,proliferation of activated murine B cells (3H-Thy),[2],inhibits proliferation of activated murine B cells
same,central and effector memory CD4+ and effector CD8+ T cells in spleen,"[3]; 75 mg/kg, 14 consecutive days",remain refractory
same,numbers of naïve and memory T cells (CD4+ and CD8+) in lymph nodes,"[3]; 75 mg/kg, 14 consecutive days",significantly reduced
same,numbers of naïve cells and CD8+ central memory T cells in spleen,"[3]; 75 mg/kg, 14 consecutive days",effectively reduced
same,lymphocyte and dendritic cell sub-populations,"[3]; mouse immune system, summary statement",depleted selective lymphocyte and dendritic cell sub-populations
same,CTL activity,[4],significantly less CTL activity
same,reduction in specific target lysis compared to vehicle treated controls,[4],approximately 4 fold
same,GC (CD38lo) B cells,[5]; [8],unaffected
same,memory (CD38hi) B cells,[5]; [8],susceptive
same,"overall number of antigen-specific B cells (B220, NP, IgG1)",[5]; [8],no significant difference
same,GC (CD38lo) B cells,"[5]; 75 mg/kg for 14 days starting 5 days after immunization, day 19, listed as ABT-737",refractory
same,"memory B cell compartment, established memory",[5],inhibited the persistence of memory B cells
same,"memory B cell compartment, established memory",[5]; listed as ABT-737,still affected
same,"frequency of ASC in the spleen or the bone marrow, established plasma cells",[5],unaffected
same,"frequency of ASC in the spleen or the bone marrow, established plasma cells",[5]; listed as ABT-737,no reduction
same,frequency of antigen-specific IgG1 ASC in the spleen,[5]; [9],significantly reduced
same,frequency of total and high affinity NP-specific ASC in the bone marrow,[5]; [9],marked reduction
same,islet allograft survival versus vehicle treated recipients,[6],sufficiently immunosuppressive to allow long-term survival of pancreatic allografts
same,islet allograft survival versus vehicle treated recipients,[6]; listed as ABT-737,functioned significantly longer; also recorded: survived longer
same,"duration of allograft function (all mice, n=5)",[6]; experiment terminated at 100 days,≥ 100 days post-transplantation
same,toxicity to human pancreatic islets,[7],low toxicity
